Legend:
[1] = Age-related hearing loss in subjects treated separately with the compounds; type: in vivo; settings: subjects treated separately with each compound
COX and SDH = COX and SDH levels in mitochondria of dosed rats; type: in vivo; settings: daily dosing per Table 2, after one month, COX and SDH averaged, vs control group 7
Text: A group of 154 rats are evenly divided between a control group and six study groups, resulting in 22 animals per group.
The change from baseline relative to the last study month in the levels of COX and SDH is compared among the seven study groups using one-way analysis of variance (ANOVA). The Dunnett t-test procedure is used to compare the control group to each of the six treatment groups. As a secondary analysis to evaluate for trends across time, repeated measures of ANOVA are to be used to compare the groups regarding the change in the COX and SDH levels over the three-month time intervals. […]
The assay for SDH measures the reduction of 2,6-dichlorophenolindophenol (DCPIP) when coupled to […] reduction of decylubiquinone (DB), monitoring the absorbance at 600 minus […] (extinction coefficient 19.1 mM^−1cm^−1) (Singer T P, 1976). The reduction of DCPIP is measured at 600 minus 520 nm in a 1 ml cuvette at 30° C. […] Antimycin A (2 μg/ml), rotenone (2 μg/ml), KCN (2 mM), and 50 μM DCPIP are added to the sample and the blank rate is recorded for 1 minute. The reaction is initiated by the addition of 50 uM DB and change in absorbance is monitored for 3 minutes.
The activity of cytochrome-c oxidase (COX) is measured by following the oxidation of reduced cytochrome c at 550 minus 540 nm (extinction coefficient 19.0 mM^−1 cm^−1) (Errede B, et al. 1996). […]

[2] = test system: mitochondrial transcripts; settings: pretreatment of senescent rats; time and dose-dependent; cited from earlier work
complex III = molecular target: T1, complex III (Rattus norvegicus, UniProt P00159); settings: by competition with coenzyme Q; cited from earlier work
T1 construct: decrease complex III activity in rat brain; host or cells: rat brain (mitochondria)

For `O=C(O)CCCCC1CCSS1` (stereo not shown) [Study group 1, lipoic acid], the age-related hearing loss [1] was “improvement” and the “increase in COX and SDH relative to the control group” value (COX and SDH) was 10%.
With `CC(=O)N[C@@H](CS)C(=O)O` [Study group 2, N-acetyl cysteine, reference compound] the “increase in COX and SDH relative to the control group” value (COX and SDH) was 15%.
For `CC(=O)O[C@H](CC(=O)[O-])C[N+](C)(C)C` [acetyl-L-carnitine], the age-related hearing loss [1] is listed as “improvement” and the “levels of mitochondrial transcripts” value [2] is listed as “bring back the levels of mitochondrial transcripts to adult levels”.
In the case of `Oc1ccc(C=Cc2cc(O)cc(O)c2)cc1` [Study group 3, resveratrol], the “complex III activity in rat brain” value (complex III) is listed as “decrease” and the age-related hearing loss [1] is listed as “improvement”.
